According to patent publication US8895726B2, “Compounds derived from indole and pharmaceutical compositions containing them” (The Institut Curie, priority 2007, dated 2014):

Tests used:
[1] = biological target: T1, interaction between hUPF1 and hSMG5 (Homo sapiens, UniProt Q92900+Q9UPR3); assay: hUPF1 immunoprecipitation, dephosphorylation complex; format: cell-based; details: HeLa cells
T1 construct: a complementary analysis of the immunoprecipitates of the hUPF1 protein from HeLa cells; endogenous in cells; host or cells: HeLa
T1 sequence (Q92900 1-1129): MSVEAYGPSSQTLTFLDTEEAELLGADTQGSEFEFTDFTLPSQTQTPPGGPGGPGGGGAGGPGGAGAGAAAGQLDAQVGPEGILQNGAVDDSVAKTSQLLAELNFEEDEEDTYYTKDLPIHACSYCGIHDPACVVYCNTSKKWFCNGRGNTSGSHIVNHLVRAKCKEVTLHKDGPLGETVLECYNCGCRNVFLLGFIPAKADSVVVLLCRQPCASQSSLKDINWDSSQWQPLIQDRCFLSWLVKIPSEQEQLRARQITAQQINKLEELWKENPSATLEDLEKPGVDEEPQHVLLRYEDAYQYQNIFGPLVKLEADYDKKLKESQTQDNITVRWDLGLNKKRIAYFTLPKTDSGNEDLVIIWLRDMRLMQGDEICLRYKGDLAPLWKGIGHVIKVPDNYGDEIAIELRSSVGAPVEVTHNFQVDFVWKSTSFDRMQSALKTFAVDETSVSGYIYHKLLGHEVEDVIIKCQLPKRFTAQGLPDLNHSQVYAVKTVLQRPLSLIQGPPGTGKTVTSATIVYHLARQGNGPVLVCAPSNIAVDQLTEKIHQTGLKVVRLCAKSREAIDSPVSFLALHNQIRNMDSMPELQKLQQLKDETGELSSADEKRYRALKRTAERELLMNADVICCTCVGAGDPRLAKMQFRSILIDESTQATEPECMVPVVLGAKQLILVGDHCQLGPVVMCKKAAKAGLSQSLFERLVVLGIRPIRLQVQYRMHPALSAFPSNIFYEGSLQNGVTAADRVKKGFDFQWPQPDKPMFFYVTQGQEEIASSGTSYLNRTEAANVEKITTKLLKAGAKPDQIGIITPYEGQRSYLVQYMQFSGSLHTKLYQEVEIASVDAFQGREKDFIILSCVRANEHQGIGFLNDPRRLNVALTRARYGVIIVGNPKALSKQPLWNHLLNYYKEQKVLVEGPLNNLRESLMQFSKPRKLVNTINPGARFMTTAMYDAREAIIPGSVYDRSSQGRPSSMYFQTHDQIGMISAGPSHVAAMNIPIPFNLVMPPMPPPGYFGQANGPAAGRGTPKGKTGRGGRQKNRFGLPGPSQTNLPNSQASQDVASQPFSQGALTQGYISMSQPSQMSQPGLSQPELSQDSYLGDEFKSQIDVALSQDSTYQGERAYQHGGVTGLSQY
T1 sequence (Q9UPR3 2-1016 limits assumed): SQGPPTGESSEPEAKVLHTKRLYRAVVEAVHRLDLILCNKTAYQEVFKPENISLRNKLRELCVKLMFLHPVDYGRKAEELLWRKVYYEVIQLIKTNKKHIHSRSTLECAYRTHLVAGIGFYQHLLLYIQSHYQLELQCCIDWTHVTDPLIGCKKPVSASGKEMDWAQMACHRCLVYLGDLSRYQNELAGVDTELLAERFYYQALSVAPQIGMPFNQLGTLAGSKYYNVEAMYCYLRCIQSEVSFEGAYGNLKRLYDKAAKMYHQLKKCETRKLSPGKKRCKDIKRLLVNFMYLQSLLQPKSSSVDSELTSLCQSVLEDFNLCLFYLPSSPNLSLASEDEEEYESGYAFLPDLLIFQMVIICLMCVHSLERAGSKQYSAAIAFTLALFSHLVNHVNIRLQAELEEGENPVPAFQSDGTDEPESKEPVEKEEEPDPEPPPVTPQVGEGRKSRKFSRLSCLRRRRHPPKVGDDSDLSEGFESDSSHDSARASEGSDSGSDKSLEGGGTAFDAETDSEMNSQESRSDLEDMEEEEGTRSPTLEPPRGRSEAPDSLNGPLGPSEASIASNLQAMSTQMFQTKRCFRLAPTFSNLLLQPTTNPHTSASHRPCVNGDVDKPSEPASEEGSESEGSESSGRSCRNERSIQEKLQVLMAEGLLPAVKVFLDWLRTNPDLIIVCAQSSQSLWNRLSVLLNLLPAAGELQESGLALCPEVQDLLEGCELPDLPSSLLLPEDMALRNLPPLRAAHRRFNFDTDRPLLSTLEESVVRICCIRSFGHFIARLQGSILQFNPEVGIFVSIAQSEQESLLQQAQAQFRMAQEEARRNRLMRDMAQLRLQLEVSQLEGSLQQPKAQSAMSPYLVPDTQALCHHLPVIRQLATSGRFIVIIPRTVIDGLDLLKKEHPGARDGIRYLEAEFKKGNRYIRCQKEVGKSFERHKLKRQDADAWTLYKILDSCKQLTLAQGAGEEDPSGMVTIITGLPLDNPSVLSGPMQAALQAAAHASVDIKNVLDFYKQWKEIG
Protocol: Immunopurification of hUPF1 and western blot analysis were carried out according to a procedure described earlier (Lejeune and Maquat, 2004) by using an anti-hUPF1 antibody (Ohnishi et al., 2003), The western blot analyses were conducted by using a 1/250 dilution of anti-hUPF1, anti-hSMG5, anti-hSMG6 or anti-hSMG7 rabbit antibodies (Ohnishi et al., 2003), a 1/1000 dilution of anti-hUPF3/3X rabbit antibody (Ishigaki et al., 2001) or of anti-TUBILIN mouse antibody (SIGMA-ALDRICH). The proteins were detected by using the <<SuperSignal West Pico Chemiluminescent Substrate>> or <<SuperSignal West Femto Maximum Sensitivity Substrate>> (PIERCE).
In order to determine which of both mechanisms would be induced by the identified compounds, a complementary analysis of the immunoprecipitates of the hUPF1 protein from HeLa cells, either incubated or not in the presence of the compound 70, was carried out.
In a first phase, the analysis of hUPF1 with its dephosphorylation complex was carried out. The results have shown that hSMG5, hSMG6 and hSMG7 may be detected in cells treated with DMSO but that hSMG5 was undetectable on the other hand when the HeLa cells had been incubated beforehand with compound 70.

HeLa cells = assay: Cell toxicity under the experimental conditions; format: cell-based; details: tested maximum concentration of 125 μM
Text: The results have shown that among the 30 tested compounds, five of them were able to stabilize both the Ter G1 mRNA level and the Ter GPx1 mRNA level and this in a dose-dependent way.

## Cc1c2ccnc(Cl)c2c(C)c2c1[nH]c1ncccc12 [Compound 70, 6-Chloro-5,1-0dimethyl-11H-pyrido[3′,2′:4,5]-pyrrolo[3,2-g]isoquinoline]
[1]
  hSMG5 in hUPF1 immunoprecipitates: undetectable
HeLa cells
  cell toxicity: did not exhibit any cell toxicity
